Source: patent US20250206732A1, “COMPOUNDS AND METHODS FOR THE TARGETED DEGRADATION OF KRAS” (Arvinas Operations, Inc., priority 2022, published 2025)

Target: T1, AsPC-1 HiBiT-KRASG12D (Homo sapiens, UniProt P01116, G12D)
T1 construct: insert the HiBiT tag onto the N-terminus of one or more of the endogenous KRAS alleles; endogenous in cells; host or cells: AsPC-1 (ATCC CRL-1682), CRISPR-Cas9 knock-in clone, one tagged allele
Assay: HiBiT degradation assay (G12D), AsPC-1 HiBiT-KRASG12D cells
Type: cell-based
Conditions: 24 hours treatment; for Dmax: ASPC1, AsPC-1 HiBiT-KRASG12D cells, maximum degradation observed; for DC50: AsPC-1 HiBiT-KRASG12D cells, HiBiT luminescence
Outline: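 Endogenous KRASG12D levels were measured via an N-terminal HiBiT tag knocked into AsPC-1 cells. Cells received compound titrations for 24 hours, and HiBiT luminescence was detected after a 45-minute lytic reagent incubation at room temperature.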

T1 sequence (P01116 1-188 isoform P01116-2 G12D): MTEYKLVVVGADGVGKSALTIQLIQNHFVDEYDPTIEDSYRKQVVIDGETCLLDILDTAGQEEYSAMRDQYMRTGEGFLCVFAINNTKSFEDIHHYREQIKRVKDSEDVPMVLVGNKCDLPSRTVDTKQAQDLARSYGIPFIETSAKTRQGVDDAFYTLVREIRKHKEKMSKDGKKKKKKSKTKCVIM

| SMILES | Dmax [%] | DC50 [nM] |
| --- | --- | --- |
| CCc1cccc2cc(O)cc(-c3ncc4c(N5CC6CCC(C5)N6)nc(OC5CCN(CC6CCN(c7cc([C@H](C(=O)N8C[C@H](O)C[C@H]8C(=O)N[C@@H](C)c8ccc(-c9scnc9C)cc8)C(C)C)on7)CC6)CC5)nc4c3F)c12 [Compound 166, (2S,4R)-1-[(2R)-2-{3-[4-({4-[(4-{3,8-diazabicyclo[3.2.1]octan-3-yl}-7-(8-ethyl-3-hydroxynaphthalen-1-yl)-8-fluoropyrido[4,3-d]pyrimidin-2-yl)oxy]piperidin-1-yl}methyl)piperidin-1-yl]-1,2-oxazol-5-yl}-3-methylbutanoyl]-4-hydroxy-N-[(1S)-1-[4-(4-methyl-1,3-thiazol-5-yl)phenyl]ethyl]pyrrolidine-2-carboxamide] | 20 to 60 | < 600 |
| CCc1cccc2cc(O)cc(-c3ncc4c(N5CC6CCC(C5)N6)nc(OC[C@@H]5CN(CC6CN(c7cc([C@H](C(=O)N8C[C@H](O)C[C@H]8C(=O)N[C@@H](C)c8ccc(-c9scnc9C)cc8)C(C)C)on7)C6)CCN5C)nc4c3F)c12 [Compound 163, (2S,4R)-1-[(2R)-2-[3-(3-{[(3S)-3-{[(4-{3,8-diazabicyclo[3.2.1]octan-3-yl}-7-(8-ethyl-3-hydroxynaphthalen-1-yl)-8-fluoropyrido[4,3-d]pyrimidin-2-yl)oxy]methyl}-4-methylpiperazin-1-yl]methyl}azetidin-1-yl)-1,2-oxazol-5-yl]-3-methylbutanoyl]-4-hydroxy-N-[(1S)-1-[4-(4-methyl-1,3-thiazol-5-yl)phenyl]ethyl]pyrrolidine-2-carboxamide] | 60 to 80 | < 600 |
| CCc1cccc2cc(O)cc(-c3ncc4c(N5CC6CCC(C5)N6)nc(OCCN5CCC(CC6CN(c7cc([C@H](C(=O)N8C[C@H](O)C[C@H]8C(=O)N[C@@H](C)c8ccc(-c9ccnn9C)cc8)C(C)C)on7)C6)CC5)nc4c3F)c12 [Compound 212, (2S,4R)-1-[(2R)-2-(3-{3-[(1-{2-[(4-{3,8-diazabicyclo[3.2.1]octan-3-yl}-7-(8-ethyl-3-hydroxynaphthalen-1-yl)-8-fluoropyrido[4,3-d]pyrimidin-2-yl)oxy]ethyl}piperidin-4-yl)methyl]azetidin-1-yl}-1,2-oxazol-5-yl)-3-methylbutanoyl]-4-hydroxy-N-[(1S)-1-[4-(1-methyl-1H-pyrazol-5-yl)phenyl]ethyl]pyrrolidine-2-carboxamide] | 80 to 100 | < 600 |
| CCc1cccc2cc(O)cc(-c3ncc4c(N5CC6CCC(C5)N6)nc(OC[C@@]56CCCN5[C@H](CN5CCN(c7cc([C@H](C(=O)N8C[C@H](O)C[C@H]8C(=O)N[C@@H](C)c8ccc(-c9scnc9C)cc8)C(C)C)on7)CC5)CC6)nc4c3F)c12 [Compound 94, (2S,4R)-1-[(2R)-2-[3-(4-{[(3S,7aS)-7a-{[(4-{3,8-diazabicyclo[3.2.1]octan-3-yl}-7-(8-ethyl-3-hydroxynaphthalen-1-yl)-8-fluoropyrido[4,3-d]pyrimidin-2-yl)oxy]methyl}-hexahydro-1H-pyrrolizin-3-yl]methyl}piperazin-1-yl)-1,2-oxazol-5-yl]-3-methylbutanoyl]-4-hydroxy-N-[(1S)-1-[4-(4-methyl-1,3-thiazol-5-yl)phenyl]ethyl]pyrrolidine-2-carboxamide] | 80 to 100 | < 600 |
| C#Cc1c(F)ccc2cc(O)cc(-c3ncc4c(N5CC6CCC(C5)N6)nc(OCCN5CCC(F)(CN6CCN(c7cc([C@H](C(=O)N8C[C@H](O)C[C@H]8C(=O)N[C@@H](C)c8ccc(-c9scnc9C)cc8)C(C)C)on7)CC6)CC5)nc4c3F)c12 [Compound 172, (2S,4R)-1-[(2R)-2-(3-{4-[(1-{2-[(4-{3,8-diazabicyclo[3.2.1]octan-3-yl}-7-(8-ethynyl-7-fluoro-3-hydroxynaphthalen-1-yl)-8-fluoropyrido[4,3-d]pyrimidin-2-yl)oxy]ethyl}-4-fluoropiperidin-4-yl)methyl]piperazin-1-yl}-1,2-oxazol-5-yl)-3-methylbutanoyl]-4-hydroxy-N-[(1S)-1-[4-(4-methyl-1,3-thiazol-5-yl)phenyl]ethyl]pyrrolidine-2-carboxamide] | 80 to 100 | < 600 |
| Cc1ncsc1-c1ccc([C@H](C)NC(=O)[C@@H]2C[C@@H](O)CN2C(=O)[C@@H](c2cc(N3CCN(C(=O)OC[C@@H]4CC[C@@]5(COc6nc(N7CC8CCC(C7)N8)c7cc(Cl)c(-c8cc(O)cc9ccccc89)c(F)c7n6)CCCN45)CC3)no2)C(C)C)cc1 (relative stereo) [Compound 330, [(3R,8S)-8-[[6-chloro-4-(3,8-diazabicyclo[3.2.1]octan-3-yl)-8-fluoro-7-(3-hydroxy-1-naphthyl)quinazolin-2-yl]oxymethyl]-1,2,3,5,6,7-hexahydropyrrolizin-3-yl]methyl 4-[5-[(1R)-1-[(2S,4R)-4-hydroxy-2-[[(1S)-1-[4-(4-methylthiazol-5-yl)phenyl]ethyl]carbamoyl]pyrrolidine-1-carbonyl]-2-methyl-propyl]isoxazol-3-yl]piperazine-1-carboxylate] | 60 to 80 | < 600 |
| C#Cc1c(F)ccc2cc(O)cc(-c3ncc4c(N5CC6CCC(C5)N6)nc(OC[C@]56CCCN5[C@H](COc5cc([C@H](C(=O)N7C[C@H](O)C[C@H]7C(=O)N[C@@H](C)c7ccc(-c8scnc8C)cc7)C(C)C)on5)CC6)nc4c3F)c12 [Compound 311, (2S,4R)-1-[(2R)-2-[3-[[(3S,8R)-8-[[4-(3,8-diazabicyclo[3.2.1]octan-3-yl)-7-(8-ethynyl-7-fluoro-3-hydroxy-1-naphthyl)-8-fluoro-pyrido[4,3-d]pyrimidin-2-yl]oxymethyl]-1,2,3,5,6,7-hexahydropyrrolizin-3-yl]methoxy]isoxazol-5-yl]-3-methyl-butanoyl]-4-hydroxy-N-[(1S)-1-[4-(4-methylthiazol-5-yl)phenyl]ethyl]pyrrolidine-2-carboxamide] | 80 to 100 | < 600 |
| CCc1cccc2cc(O)cc(-c3ncc4c(N5CC6CCC(C5)N6)nc(OC[C@H]5CN(CC6CN(c7cc([C@H](C(=O)N8C[C@H](O)C[C@H]8C(=O)N[C@@H](C)c8ccc(-c9scnc9C)cc8)C(C)C)on7)C6)CCN5C)nc4c3F)c12 [Compound 162, (2S,4R)-1-[(2R)-2-[3-(3-{[(3R)-3-{[(4-{3,8-diazabicyclo[3.2.1]octan-3-yl}-7-(8-ethyl-3-hydroxynaphthalen-1-yl)-8-fluoropyrido[4,3-d]pyrimidin-2-yl)oxy]methyl}-4-methylpiperazin-1-yl]methyl}azetidin-1-yl)-1,2-oxazol-5-yl]-3-methylbutanoyl]-4-hydroxy-N-[(1S)-1-[4-(4-methyl-1,3-thiazol-5-yl)phenyl]ethyl]pyrrolidine-2-carboxamide] | 20 to 60 | < 600 |
| C#Cc1c(F)ccc2cc(O)cc(-c3ncc4c(N5CC6CCC(C5)N6)nc(OC[C@@]56CCCN5[C@H](COc5cc([C@H](C(=O)N7C[C@H](O)C[C@H]7C(=O)N[C@@H](C)c7ccc(-c8scnc8C)cc7)C(C)C)on5)CC6)nc4c3F)c12 [Compound 314, (2S,4R)-1-[(2R)-2-[3-[[(3S,8S)-8-[[4-(3,8-diazabicyclo[3.2.1]octan-3-yl)-7-(8-ethynyl-7-fluoro-3-hydroxy-1-naphthyl)-8-fluoro-pyrido[4,3-d]pyrimidin-2-yl]oxymethyl]-1,2,3,5,6,7-hexahydropyrrolizin-3-yl]methoxy]isoxazol-5-yl]-3-methyl-butanoyl]-4-hydroxy-N-[(1S)-1-[4-(4-methylthiazol-5-yl)phenyl]ethyl]pyrrolidine-2-carboxamide] | 80 to 100 | < 600 |
| CCc1cccc2cc(O)cc(-c3ncc4c(N5CC6CCC(C5)N6)nc(OCCN5CCC(N(C)c6cc([C@H](C(=O)N7C[C@H](O)C[C@H]7C(=O)N[C@@H](C)c7ccc(-c8scnc8C)cc7)C(C)C)on6)CC5)nc4c3F)c12 (relative stereo) [Compound 135, (2S,4R)-1-[(2R*)-2-{3-[(1-{2-[(4-{3,8-diazabicyclo[3.2.1]octan-3-yl}-7-(8-ethyl-3-hydroxynaphthalen-1-yl)-8-fluoropyrido[4,3-d]pyrimidin-2-yl)oxy]ethyl}piperidin-4-yl)(methyl)amino]-1,2-oxazol-5-yl}-3-methylbutanoyl]-4-hydroxy-N-[(1S)-1-[4-(4-methyl-1,3-thiazol-5-yl)phenyl]ethyl]pyrrolidine-2-carboxamide] | 80 to 100 | < 600 |
| CCc1cccc2cc(O)cc(-c3ncc4c(N5CC6CCC(C5)N6)nc(OCCN5CCC(COc6cc([C@H](C(=O)N7C[C@H](O)C[C@H]7C(=O)N[C@@H](C)c7ccc(-c8ccnn8C)cc7)C(C)C)on6)CC5)nc4c3F)c12 (relative stereo) [Compound 143, (2S,4R)-1-[(2R*)-2-{3-[(1-{2-[(4-{3,8-diazabicyclo[3.2.1]octan-3-yl}-7-(8-ethyl-3-hydroxynaphthalen-1-yl)-8-fluoropyrido[4,3-d]pyrimidin-2-yl)oxy]ethyl}piperidin-4-yl)methoxy]-1,2-oxazol-5-yl}-3-methylbutanoyl]-4-hydroxy-N-[(1S)-1-[4-(1-methyl-1H-pyrazol-5-yl)phenyl]ethyl]pyrrolidine-2-carboxamide] | 80 to 100 | < 600 |
| CCc1cccc2cc(O)cc(-c3ncc4c(N5CC6CCC(C5)N6)nc(OCCN5C[C@@H]6CN(c7cc(C(C(=O)N8C[C@H](O)C[C@H]8C(=O)N[C@@H](C)c8ccc(-c9scnc9C)cc8)C(C)C)on7)C[C@@H]6C5)nc4c3F)c12 (single isomer, unassigned) [Compound 79, (2S,4R)-1-[(2R*)-2-{3-[(3aR,6aS)-5-{2-[(4-{3,8-diazabicyclo[3.2.1]octan-3-yl}-7-(8-ethyl-3-hydroxynaphthalen-1-yl)-8-fluoropyrido[4,3-d]pyrimidin-2-yl)oxy]ethyl}-octahydropyrrolo[3,4-c]pyrrol-2-yl]-1,2-oxazol-5-yl}-3-methylbutanoyl]-4-hydroxy-N-[(1S)-1-[4-(4-methyl-1,3-thiazol-5-yl)phenyl]ethyl]pyrrolidine-2-carboxamide] | 80 to 100 | < 600 |
